From patent publication US11247981B2, “Metalloenzyme inhibitor compounds” (Mycovia Pharmaceuticals, Inc., priority 2012, dated 2022)
≈ marks a conversion by molar mass, not a printed value.

System: C. albicans
Assay: Minimum Inhibitory Concentration (MIC), CLSI M27-A2
Assay type: cell-based
Settings: rating scale in μg/mL
Description: A. Minimum Inhibitory Concentration (MIC) Compounds were assessed for their ability to inhibit the growth of common strains of fungus, C. albicans using a standardized procedure (CLSI M27-A2). Stock solutions of the test compounds and standards were prepared in DMSO at 1,600 μg/mL (C. albicans). Eleven, serial, one-half dilutions of compounds were prepared in 96-well plates in RPMI+MOPS. The assay concentration ranges were 8-0.001 μg/mL (C. albicans). Cell suspensions of C. albicans were prepared and added to each well at concentrations of approximately 3.7×10^3 colony-forming-units per milliliter (cfu/mL). All testing was in duplicate. The inoculated plates were incubated for approximately 48 h at 35±1° C. At the completion of incubation the wells of each plate were evaluated visually for the presence of fungal growth. […] For QC purposes C. krusei isolate ATCC 6258 (4.0×10^3 cfu/mL) was included in the VOR assay.

CC(F)(c1ccc(-c2ccc(OCC(F)(F)F)cc2)cn1)C(O)(Cn1cnnn1)c1ccc(F)cc1F (centres unmarked) [Example 56, 2-(2,4-Difluorophenyl)-3-fluoro-1-(1H-tetrazol-1-yl)-3-(5-(4-(2,2,2-trifluoroethoxy)phenyl)pyridin-2-yl)butan-2-ol] was tested, and the “Candida MIC Rating” value was “C (>1.5 − 4)”.

For CC(F)(c1ccc(-c2ccc(F)cc2)cn1)C(O)(Cn1cnnn1)c1ccc(F)cc1F (centres unmarked) [Example 51, 2-(2,4-Difluorophenyl)-3-fluoro-3-(5-(4-fluorophenyl)pyridin-2-yl)-1-(1H-tetrazol-1-yl)butan-2-ol], the “Candida MIC Rating” value was “A (≤0.5)”.

In the case of CC(F)(c1ccc(-c2ccc(Cl)cc2)cn1)C(O)(Cn1cnnn1)c1ccc(F)cc1F (centres unmarked) [Example 54, 3-(5-(4-Chlorophenyl)pyridin-2-yl)-2-(2,4-difluorophenyl)-3-fluoro-1-(1H-tetrazol-1-yl)butan-2-ol], the “Candida MIC Rating” value is reported as “C (>1.5 − 4)”.

CC(F)(c1ccc(-c2ccc(Cl)cc2)cn1)C(O)(Cn1cnnn1)c1ccc(F)cc1F (centres unmarked) [Example 55, 3-(5-(4-Chlorophenyl)pyridin-2-yl)-2-(2,4-difluorophenyl)-3-fluoro-1-(1H-tetrazol-1-yl)butan-2-ol] was tested, and the “Candida MIC Rating” value was “A (≤0.5)”.

CC(F)(c1ccc(-c2ccc(OC(F)(F)F)cc2)cn1)C(O)(Cn1cnnn1)c1ccc(F)cc1F (centres unmarked) [Example 47, 2-(2,4-Difluorophenyl)-3-fluoro-1-(1H-tetrazol-1-yl)-3-(5-(4-(trifluoromethoxy)phenyl)-pyridin-2-yl)butan-2-ol] was tested, and the “Candida MIC Rating” value was “A (≤0.5)”.

For OC(Cn1cnnn1)(c1ccc(F)cc1F)C(F)(F)c1ccc(-c2ccc(OCC(F)(F)F)cc2)cn1 (centres unmarked) [Example 39, 2-(2,4-Difluorophenyl)-1,1-difluoro-3-(1H-tetrazol-1-yl)-1-(5-(4-(2,2,2-trifluoroethoxy)phenyl)pyridin-2-yl)propan-2-ol], the “Candida MIC Rating” value was “C (>1.5 − 4)”.

Work on CC(F)(c1ccc(-c2ccc(F)cc2)cn1)C(O)(Cn1cnnn1)c1ccc(F)cc1F (centres unmarked) [Example 50, 2-(2,4-Difluorophenyl)-3-fluoro-3-(5-(4-fluorophenyl)pyridin-2-yl)-1-(1H-tetrazol-1-yl)butan-2-ol] yielded an MIC (Candida albicans) of 1.5 to 4 µg/mL (≈ 3.38 to 9.02 µM).

For CC(F)(c1ccc(-c2ccc(C(F)(F)F)cc2)cn1)C(O)(Cn1cnnn1)c1ccc(F)cc1F (centres unmarked) [Example 53], the “Candida MIC Rating” value was “B (>0.5 − 1.5)”.

With CC(F)(c1ccc(-c2ccc(C(F)(F)F)cc2)cn1)C(O)(Cn1cnnn1)c1ccc(F)cc1F (centres unmarked) [Example 52] the “Candida MIC Rating” value was “C (>1.5 − 4)”.

In the case of OC(Cn1cnnn1)(c1ccc(F)cc1F)C(F)(F)c1ccc(-c2ccc(OCC(F)(F)F)cc2)cn1 (centres unmarked) [Example 11, 2-(2,4-Difluorophenyl)-1,1-difluoro-3-(1H-tetrazol-1-yl)-1-(5-(4-(2,2,2-trifluoroethoxy)phenyl)pyridin-2-yl)propan-2-ol], the “Candida MIC Rating” value is reported as “A (≤0.5)”.

For CC(F)(c1ccc(-c2ccc(OCC(F)(F)F)cc2)cn1)C(O)(Cn1cnnn1)c1ccc(F)cc1F (centres unmarked) [Example 57, 2-(2,4-Difluorophenyl)-3-fluoro-1-(1H-tetrazol-1-yl)-3-(5-(4-(2,2,2-trifluoroethoxy)phenyl)pyridin-2-yl)butan-2-ol], the “Candida MIC Rating” value was “A (≤0.5)”.
